Consider two compounds from patent US6413517B1, “Identification of broadly reactive DR restricted epitopes” (Epimmune, Inc., priority 1997, dated 2002).

Read-outs that look alike come from different tables or passages of the source. No end group written: not given here.

For test [1], the system named is panel of purified HLA DR molecules. In kind it is binding, human.
In a further test the target is T1, DRB1*0701 (DR7) (Homo sapiens, UniProt P01903+P01911, A100R/A102G/A103Q/D57E/D86V/E43K/F76Y/K127E/L162R/M171V/P40G/Q125H/Q99D/R33Q/R42Y/R54Q/S133A/S66F/T210M/V115G/Y107V/Y59L/Y89S).
T1 construct: Epstein-Barr virus (EBV) transformed homozygous cell lines were used as sources; endogenous in cells; host or cells: PITOUT (EBV-transformed homozygous B cell line)
The test can be described thus: biochemical. It is filed as binding.

For a further test, the target named is T2, DRB1*1201 (DR5w12) (Homo sapiens, UniProt P01903+P01911, A100R/A169T/D57E/D86V/F55L/H45Y/K41T/L162R/M171V/P40S/Q125H/Q178H/Q39Y/Q99D/R42G/S66L/T262R/V114A/V67L/W38E/Y59H/Y61H/Y89S).
T2 construct: Epstein-Barr virus (EBV) transformed homozygous cell lines were used as sources; endogenous in cells; host or cells: Herluf (EBV-transformed homozygous B cell line)
Nature of the test: biochemical. In kind it is binding.

The target of test [2] is T3, DRB1*0301 (DR3w17) (Homo sapiens, UniProt P01903+P01911, A100K/A102G/A103R/A169T/F55Y/I96L/K41T/L162R/M171V/P40S/Q125H/Q178H/Q39Y/R42S/S66N/T106N/T262R/W38E/Y61H). Conditions: read-out: Binding Capacity (IC 50% nM) Other Alleles DR3.
Another test deals with T4, DRB1*0405 (DR4w15) (Homo sapiens, UniProt P01903+P01911, A100R/A169T/D86S/F76Y/I96L/K127E/L162R/M171V/N62H/P40V/Q125Y/R42H/S133A/S149N/S66Y/V115G/V209L/W38E).
T4 construct: Epstein-Barr virus (EBV) transformed homozygous cell lines were used as sources; endogenous in cells; host or cells: KT3 (EBV-transformed homozygous B cell line)
Nature of the test: biochemical. It is filed as binding.

For a further test, the target named is T5, DRB1*0802 (DR8w2) (Homo sapiens, UniProt P01903+P01911, A100R/A103L/A169T/F76Y/H45Y/I96F/K41T/L162R/M171V/P40S/Q125H/Q178H/Q39Y/Q99D/R218S/R42G/S66Y/V115G/W38E).
T5 construct: Epstein-Barr virus (EBV) transformed homozygous cell lines were used as sources; endogenous in cells; host or cells: OLL (EBV-transformed homozygous B cell line)
The test can be described thus: biochemical. In kind it is binding.

Another test concerns the target T6, DRB1*1501 (DR2w2b) (Homo sapiens, UniProt P01903+P01911).
T6 construct: expressed in transfected cells; host or cells: transfected fibroblasts L466.1
The test can be described thus: biochemical. In kind it is binding.

The target in another test is T7, DRB1*1101 (DR5w11) (Homo sapiens, UniProt P01903+P01911, A100R/A169T/A87E/I96F/K41T/L162R/M171V/P40S/Q125H/Q178H/Q39Y/Q99D/R42S/S66Y/T262R/V115G/W38E).
T7 construct: Epstein-Barr virus (EBV) transformed homozygous cell lines were used as sources; endogenous in cells; host or cells: SWEIG (EBV-transformed homozygous B cell line)
Nature of the test: biochemical. It is filed as binding.

A further test addresses T8, DRB5*0101 (DR2w2a) (Homo sapiens, UniProt P01903+Q30154).
T8 construct: Epstein-Barr virus (EBV) transformed homozygous cell lines were used as sources; endogenous in cells; host or cells: GM3107 (EBV-transformed homozygous B cell line)
Nature of the test: biochemical. In kind it is binding.

The next test addresses T9, DRB1*0901 (DR9) (Homo sapiens, UniProt P01903+P01911, A100R/A103E/D57H/D86V/F55Y/F60I/F76Y/I96F/K127E/L162R/M171V/P40D/Q125H/Q99R/R33Q/R42F/S133A/S66N/T210M/V115G/W38K/Y107V/Y59G/Y89S).
T9 construct: Epstein-Barr virus (EBV) transformed homozygous cell lines were used as sources; endogenous in cells
The test can be described thus: biochemical. In kind it is binding.

A further test addresses T10, DRB1*0401 (DR4w4) (Homo sapiens, UniProt P01903+P01911, A100K/A169T/F76Y/I96L/K127E/L162R/M171V/N62H/P40V/Q125Y/R42H/S133A/S149N/S66Y/V115G/V209L/W38E).
T10 construct: Epstein-Barr virus (EBV) transformed homozygous cell lines were used as sources; endogenous in cells; host or cells: PREISS (EBV-transformed homozygous B cell line)
The test can be described thus: biochemical. It is filed as binding.

The target in another test is T11, DRB1*1302 (DR6w19) (Homo sapiens, UniProt P01903+P01911, A100E/A169T/K41T/L162R/M171V/P40S/Q125H/Q178H/Q39Y/Q99D/R42S/S66N/T262R/V115G/W38E/Y61H).
T11 construct: Epstein-Barr virus (EBV) transformed homozygous cell lines were used as sources; the source of Class II molecules the EBV transformed homozygous cell line H0301; endogenous in cells; host or cells: H0301 (EBV-transformed homozygous B cell line)
The test can be described thus: biochemical. In kind it is binding.

For test [3], the target named is T3, DRB1*0301 (DR3w17). The test can be described thus: biochemical. The note with it: Binding Capacity (IC50% nM) DR3.
A further test concerns the target T12, DRB1*0101 (DR1) (Homo sapiens, UniProt P01903+P01911, A100R/D57E/F55L/F60I/F76Y/I96L/L162R/M171V/P40L/Q125E/R42F/V115G/Y59C).
T12 construct: Epstein-Barr virus (EBV) transformed homozygous cell lines were used as sources; endogenous in cells; host or cells: LG2 (EBV-transformed homozygous B cell line)
Nature of the test: biochemical. In kind it is binding.

T7 sequence (P01903 26-254, other chains not shown): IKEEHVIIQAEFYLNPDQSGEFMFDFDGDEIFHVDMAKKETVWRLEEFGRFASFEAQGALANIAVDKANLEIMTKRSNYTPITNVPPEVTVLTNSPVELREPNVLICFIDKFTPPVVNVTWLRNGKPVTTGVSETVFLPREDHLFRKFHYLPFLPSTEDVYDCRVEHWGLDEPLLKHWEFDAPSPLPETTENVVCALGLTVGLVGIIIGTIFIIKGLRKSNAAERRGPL

In the case of `CC[C@H](C)[C@H](NC(=O)[C@H](CO)NC(=O)[C@@H](N)CO)C(=O)N[C@H](C(=O)N[C@@H](Cc1ccccc1)C(=O)NCC(=O)N[C@@H](C)C(=O)N[C@@H](Cc1ccccc1)C(=O)N1CCC[C@H]1C(=O)N[C@@H](CO)C(=O)N[C@@H](CC(C)C)C(=O)N[C@@H](Cc1c[nH]cn1)C(=O)N[C@@H](CO)C(=O)NCC(=O)N[C@@H](CS)C(=O)N[C@@H](CS)C(=O)O)[C@@H](C)CC` [Peptide 1136.38], in test [1], the “Total Alleles Bound” value came out at 6.
Turning to WLFPRFKFVWVTYASW [Peptide 1136.44.01], the IC50 at DRB1*0701 (DR7) (Binding Capacity (IC50% nM) DR7) is above 10000 nM; at DRB1*0701 (DR7) (read-out: Binding Capacity (IC 50% nM) DR1,4,7 DR7) it was above 1000 nM; at DRB1*1201 (DR5w12) (Binding Capacity (IC50% nM) DR5w12), above 10000 nM; on DRB1*1201 (DR5w12) (read-out: Binding Capacity (IC 50% nM) Other Alleles DR5w12), above 1000 nM; at DRB1*0301 (DR3w17) [2] it was above 1000 nM; on DRB1*0405 (DR4w15) (Binding Capacity (IC50% nM) DR4w15), 6550 nM. The IC50 was above 1000 nM at DRB1*0405 (DR4w15) (read-out: Binding Capacity (IC 50% nM) Other Alleles DR4w15); 6360 nM at DRB1*0802 (DR8w2) (Binding Capacity (IC50% nM) DR8w2); above 1000 nM on DRB1*0802 (DR8w2) (read-out: Binding Capacity (IC 50% nM) Other Alleles DR8w2); above 10000 nM on DRB1*1501 (DR2w2b) (Binding Capacity (IC50% nM) DR2w2b); above 1000 nM on DRB1*1501 (DR2w2b) (read-out: Binding Capacity (IC 50% nM) Other Alleles DR2w2b); 4000 nM at DRB1*1101 (DR5w11) (Binding Capacity (IC50% nM) DR5w11). Besides, the IC50 is above 1000 nM at DRB1*1101 (DR5w11) (read-out: Binding Capacity (IC 50% nM) Other Alleles DR5w11); above 10000 nM at DRB5*0101 (DR2w2a) (Binding Capacity (IC50% nM) DR2w2a); above 1000 nM at DRB5*0101 (DR2w2a) (read-out: Binding Capacity (IC 50% nM) Other Alleles DR2w2a); above 10000 nM on DRB1*0901 (DR9) (Binding Capacity (IC50% nM) DR9); above 1000 nM on DRB1*0901 (DR9) (read-out: Binding Capacity (IC 50% nM) Other Alleles DR9); below 1000 nM at DRB1*0401 (DR4w4) (Binding Capacity (IC 50% nM) DR1,4,7 DR4w4). The IC50 was 780 nM on DRB1*0401 (DR4w4) (Binding Capacity (IC50% nM) DR4w4); above 10000 nM on DRB1*1302 (DR6w19) (Binding Capacity (IC50% nM) DR6w19); above 1000 nM at DRB1*1302 (DR6w19) (read-out: Binding Capacity (IC 50% nM) Other Alleles DR6w19); above 10000 nM at DRB1*0301 (DR3w17) [3]; 526 nM at DRB1*0101 (DR1) (Binding Capacity (IC50% nM) DR1); below 1000 nM on DRB1*0101 (DR1) (Binding Capacity (IC 50% nM) DR1,4,7 DRB1).
